Results on seven compounds are retold here after PubChem BioAssay (NCI).

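Grown in 96-well plates, cells were treated for 48 hours with each compound at five concentrations. Insufficient inhibition: endpoint recorded as highest concentration tested. TGI: total growth inhibition.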 Some results are limits rather than exact numbers.

Some test systems named below: RPMI-8226 leukemia; SF-295 CNS; MDA-N; HOP-62 NSCLC; SK-MEL-2 melanoma; UACC-62 melanoma; HOP-92 NSCLC; SNB-75 CNS; DU-145 prostate; BT-549 breast; K-562 leukemia; NCI-H460 lung; HT29 colon; NCI-H23 lung; MDA-MB-435; MCF7 breast; A549 NSCLC; T-47D breast; SK-OV-3 ovarian; LOX IMVI melanoma.
What all share (assay): inhibition of tumour cell growth, NCI panel, 48 h

`CC(=O)OC[C@@H](OC(C)=O)[C@@H](OC(C)=O)[C@H]1OC[C@@H]2C[C@H]([C@H]1OC(C)=O)N(Cc1ccccc1)O2`: the TGI in the experiment on RPMI-8226 leukemia, in the experiment on SF-295 CNS, with MDA-N, in the experiment on HOP-62 NSCLC, in the experiment with SK-MEL-2 melanoma and in the experiment with UACC-62 melanoma was more than 100 µM each time. The TGI in the experiment with HOP-92 NSCLC, with SNB-75 CNS, in the experiment with DU-145 prostate, in the experiment with BT-549 breast, in the experiment on K-562 leukemia and in the experiment on NCI-H460 lung was more than 100 µM throughout. Besides, the TGI in the experiment on HT29 colon, in the experiment on NCI-H23 lung, in the experiment on MDA-MB-435, with MCF7 breast, in the experiment with A549 NSCLC and in the experiment on T-47D breast was more than 100 µM throughout. The TGI in the experiment on SK-OV-3 ovarian and with LOX IMVI melanoma was more than 100 µM each time.
Consider `[O-]c1c[n+](CC[n+]2cc([O-])on2)no1`, for which the TGI in the experiment with RPMI-8226 leukemia, in the experiment on SF-295 CNS, in the experiment on MDA-N, in the experiment on HOP-62 NSCLC, in the experiment with SK-MEL-2 melanoma and with UACC-62 melanoma was more than 100 µM throughout. Besides, the TGI in the experiment on HOP-92 NSCLC, in the experiment on SNB-75 CNS, in the experiment on DU-145 prostate, with BT-549 breast, in the experiment with K-562 leukemia and in the experiment on NCI-H460 lung was more than 100 µM each time. The TGI in the experiment on HT29 colon, with NCI-H23 lung, in the experiment on MDA-MB-435, in the experiment on MCF7 breast, with A549 NSCLC and in the experiment with T-47D breast was more than 100 µM in each case. Also, the TGI in the experiment with SK-OV-3 ovarian and in the experiment on LOX IMVI melanoma was more than 100 µM each time.
Consider `COC(=O)/C=C(/C(=O)OC)c1c(C)cc2c(C)cc(C)cc(C)c1-2`, for which the TGI was more than 100 µM in the experiment with RPMI-8226 leukemia; 29.3 µM in the experiment with SF-295 CNS; 5.16 µM in the experiment on MDA-N; 37.9 µM in the experiment on HOP-62 NSCLC; more than 77.1 µM with SK-MEL-2 melanoma; more than 66.5 µM with UACC-62 melanoma. In addition, the TGI is more than 100 µM with HOP-92 NSCLC; more than 72.2 µM with SNB-75 CNS; more than 91.8 µM with DU-145 prostate; 47.1 µM in the experiment on BT-549 breast; more than 100 µM in the experiment with K-562 leukemia; more than 69.9 µM in the experiment on NCI-H460 lung. In addition, the TGI in the experiment on HT29 colon was 28.3 µM; in the experiment on NCI-H23 lung, more than 81.1 µM; with MDA-MB-435, more than 30.5 µM; in the experiment on MCF7 breast, 36.6 µM; in the experiment on A549 NSCLC, more than 84.5 µM; in the experiment with T-47D breast, more than 100 µM. The TGI with SK-OV-3 ovarian is 99.5 µM; in the experiment with LOX IMVI melanoma, more than 57.8 µM.
As for `CN(C)c1ccc(N=Nc2cccc3ncccc23)cc1`, the TGI with RPMI-8226 leukemia is more than 68.1 µM; with SF-295 CNS, more than 100 µM; in the experiment with MDA-N it was more than 100 µM; in the experiment on HOP-62 NSCLC it was more than 100 µM; with SK-MEL-2 melanoma it was more than 100 µM; with UACC-62 melanoma, more than 100 µM. Also, the TGI in the experiment with HOP-92 NSCLC, in the experiment with SNB-75 CNS, with DU-145 prostate, with BT-549 breast, with K-562 leukemia and in the experiment with NCI-H460 lung was more than 100 µM throughout. Also, the TGI is more than 100 µM in the experiment with HT29 colon; more than 100 µM in the experiment on NCI-H23 lung; more than 79.8 µM in the experiment on MDA-MB-435; more than 100 µM in the experiment on MCF7 breast; more than 100 µM in the experiment on A549 NSCLC; more than 100 µM in the experiment on T-47D breast. Further, the TGI with SK-OV-3 ovarian and in the experiment with LOX IMVI melanoma was more than 100 µM each time.
Consider `Cc1ccc(/C(O)=C/c2nc3ccccc3[nH]c2=O)c(C)c1`, for which the TGI in the experiment on RPMI-8226 leukemia was more than 100 µM; in the experiment on SF-295 CNS it was 53 µM; with MDA-N it was more than 100 µM; with HOP-62 NSCLC, 34.3 µM; in the experiment with SK-MEL-2 melanoma it was more than 80.4 µM; in the experiment on UACC-62 melanoma, 43.7 µM. The TGI in the experiment with HOP-92 NSCLC was 16.9 µM; in the experiment on SNB-75 CNS it was 20.3 µM; in the experiment with DU-145 prostate it was more than 70.5 µM; with BT-549 breast, more than 57.5 µM; with K-562 leukemia, more than 100 µM; with NCI-H460 lung it was 46.8 µM. The TGI in the experiment with HT29 colon is more than 86.3 µM; in the experiment with NCI-H23 lung it was more than 65 µM; in the experiment on MDA-MB-435 it was more than 100 µM; in the experiment with MCF7 breast, more than 100 µM; in the experiment on A549 NSCLC it was more than 58.8 µM; with T-47D breast, more than 69.7 µM. The TGI with SK-OV-3 ovarian was 33.6 µM; in the experiment with LOX IMVI melanoma it was more than 100 µM.
On to `N/C(COc1ccc(Cl)cc1)=N\NC(=O)c1ccncc1`, for which the TGI with RPMI-8226 leukemia, in the experiment with SF-295 CNS, with MDA-N, in the experiment with HOP-62 NSCLC, in the experiment on SK-MEL-2 melanoma and with UACC-62 melanoma was more than 100 µM in each case. Moreover, the TGI with HOP-92 NSCLC is more than 100 µM; in the experiment with SNB-75 CNS, 85.2 µM; with DU-145 prostate it was more than 100 µM; with BT-549 breast, more than 100 µM; in the experiment with K-562 leukemia, more than 100 µM; with NCI-H460 lung, more than 100 µM. Moreover, the TGI in the experiment with HT29 colon, with NCI-H23 lung, with MDA-MB-435, in the experiment with MCF7 breast, with A549 NSCLC and in the experiment with T-47D breast was more than 100 µM in each case. The TGI with SK-OV-3 ovarian and in the experiment with LOX IMVI melanoma was more than 100 µM in each case.
`CCN1C[C@]2(C)CC[C@H](OCc3ccccc3)C34C5C[C@@H]6CC[C@](O)(C(C[C@@H]32)C14)C5[C@H]6OCc1ccccc1` (stereo not given in full): the TGI in the experiment on RPMI-8226 leukemia, with SF-295 CNS, in the experiment with MDA-N, with HOP-62 NSCLC, in the experiment on SK-MEL-2 melanoma and in the experiment on UACC-62 melanoma was more than 100 µM throughout. The TGI in the experiment with HOP-92 NSCLC, in the experiment on SNB-75 CNS, in the experiment with DU-145 prostate, in the experiment with BT-549 breast, in the experiment on K-562 leukemia and in the experiment with NCI-H460 lung was more than 100 µM throughout. For the same compound, the TGI in the experiment with HT29 colon, in the experiment on NCI-H23 lung, with MDA-MB-435, in the experiment with MCF7 breast, with A549 NSCLC and in the experiment with T-47D breast was more than 100 µM each time. The TGI in the experiment on SK-OV-3 ovarian and with LOX IMVI melanoma was more than 100 µM in each case.
